Reference: patent US20240116985A1, “STAPLED PEPTIDES AND METHODS THEREOF” (priority 2020, published 2024)
Converted amounts (≈) assume the structure as drawn. Like-named read-outs stand apart in the source and are kept apart here.

Assays:
[1] = target: T1, beta-catenin/TCF4 engagement (Homo sapiens, UniProt P35222); assay: Nano-BRET target engagement assay (B-cat-Halo & TCF4-Luc in HEK293 cells); format: cell-based; conditions: absolute IC50; read-out: NanoBRET Abs IC50
T1 construct: expressed in transfected cells; host or cells: HEK293
T1 sequence (P35222 1-781): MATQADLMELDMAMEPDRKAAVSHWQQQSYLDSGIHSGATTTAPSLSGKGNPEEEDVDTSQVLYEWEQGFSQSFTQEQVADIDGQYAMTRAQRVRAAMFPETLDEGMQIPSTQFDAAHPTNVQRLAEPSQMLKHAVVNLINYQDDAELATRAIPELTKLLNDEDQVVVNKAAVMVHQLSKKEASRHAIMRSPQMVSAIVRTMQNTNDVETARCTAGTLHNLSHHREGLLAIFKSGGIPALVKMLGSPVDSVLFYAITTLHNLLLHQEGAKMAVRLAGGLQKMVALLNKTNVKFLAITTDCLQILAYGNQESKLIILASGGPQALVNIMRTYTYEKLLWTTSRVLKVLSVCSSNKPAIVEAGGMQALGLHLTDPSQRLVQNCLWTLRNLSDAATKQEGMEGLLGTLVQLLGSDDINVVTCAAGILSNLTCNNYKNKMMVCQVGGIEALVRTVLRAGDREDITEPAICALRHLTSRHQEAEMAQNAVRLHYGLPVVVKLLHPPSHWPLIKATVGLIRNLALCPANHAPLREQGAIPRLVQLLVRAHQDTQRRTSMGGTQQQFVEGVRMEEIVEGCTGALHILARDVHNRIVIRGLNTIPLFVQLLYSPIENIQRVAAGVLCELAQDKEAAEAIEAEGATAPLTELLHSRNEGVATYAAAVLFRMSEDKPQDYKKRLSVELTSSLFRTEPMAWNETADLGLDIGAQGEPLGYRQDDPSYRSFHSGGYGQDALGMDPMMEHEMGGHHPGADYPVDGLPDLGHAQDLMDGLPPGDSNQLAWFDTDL

[2] = target: T2, full-length beta-Catenin (Uniprot ID P35222) (Homo sapiens, UniProt P35222); assay: Fluorescence polarization IC50 (beta-catenin / 5FAM-TCF4 10-53 competition); format: binding; conditions: read-out: beta-Catenin FP IC50
T2 construct: 10 nM full-length beta-Catenin (Uniprot ID P35222)
T2 sequence (P35222 1-781): T1 sequence (P35222 1-781)

Solubility in PBS = format: physicochemical
Method in brief: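 Read-out is the HPLC peak area of the supernatant from ultracentrifuged PBS solution, scaled against a 50 μM peptide DMSO injection; value reported as [(PBS area)/(DMSO area)]*50 uM.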

Row | Compound | IC50 [1] | IC50 ([2]; fluorescence polarization) | Solubility (Solubility in PBS; Solubility (uM)) | Solubility (Solubility in PBS) | IC50 [2]
1 | CC(=O)N1CCC[C@]12CC=CCCCC1(CCCC=CCCCOC(=O)N3CC[C@@](C(=O)N[C@@H](Cc4ccccc4Cl)C(=O)N[C@@H](Cc4csc5ccccc45)C(=O)N[C@H](CO)[C@@H](C)O)(C3)NC(=O)[C@H]([C@@H](C)O)NC(=O)[C@H](Cc3ccccc3)NC(=O)[C@H](C)NC(=O)[C@H](C)NC(=O)[C@H](CC(=O)O)NC(=O)[C@H](CC(=O)O)NC1=O)NC(=O)[C@H](CC1CCCCC1)NC(=O)[C@H](CC(=O)O)NC2=O (stereo partly drawn) [I-1312, Ac-PL3-Asp-Cha-B5-Asp-Asp-Ala-Ala-Phe-Thr-PyrS2-2C1F-BztA-Thro1] | 16100 nM | 14 nM | 46 µM (≈ 88.3 µg/mL) | – | –
2 | CC(=O)N1CCC[C@]12CC=CCCCC1(CCCC=CCCCOC(=O)N3CC[C@@](C(=O)N[C@@H](Cc4ccccc4Cl)C(=O)N[C@@H](Cc4csc5ccccc45)C(=O)N[C@@H](CCC(N)=O)C(N)=O)(C3)NC(=O)[C@H](Cc3ccccc3)NC(=O)[C@H](Cc3ccccc3)NC(=O)[C@H](C)NC(=O)[C@H](C)NC(=O)[C@H](CC(=O)O)NC(=O)[C@H](CC(=O)O)NC1=O)NC(=O)[C@H](CC(C)(C)C)NC(=O)[C@H](CC(=O)O)NC2=O (stereo partly drawn) [I-1366, Ac-PL3-Asp-Npg-B5-Asp-Asp-Ala-Ala-Phe-Phe-PyrS2-2C1F-BztA-Gln-NH2] | 7500 nM | 7 nM | – | 10 µM (≈ 19.8 µg/mL) | –
3 | CC(=O)N1CCC[C@]12CC=CCCCC1(CCCC=CCCCOC(=O)N3CC[C@@](C(=O)N[C@@H](Cc4ccccc4Cl)C(=O)N[C@@H](Cc4csc5ccccc45)C(=O)N[C@@H](CCO)C(N)=O)(C3)NC(=O)[C@H](CO)NC(=O)[C@H](Cc3ccccc3)NC(=O)[C@H](C)NC(=O)[C@H](C)NC(=O)[C@H](CC(=O)O)NC(=O)[C@H](CC(=O)O)NC1=O)NC(=O)[C@H](Cc1ccccc1)NC(=O)[C@H](CC(=O)O)NC2=O (stereo partly drawn) [I-1143, Ac-PL3-Asp-Phe-B5-Asp-Asp-Ala-Ala-Phe-Ser-PyrS2-2C1F-BztA-Hse-NH2] | 33100 nM | 12 nM | 44 µM (≈ 84.2 µg/mL) | – | –
4 | CC(=O)N1CCC[C@]12CC=CCCCC1(CCCC=CCCCOC(=O)N3CC[C@@](C(=O)N[C@@H](Cc4ccccc4Cl)C(=O)N[C@@H](Cc4csc5ccccc45)C(=O)N[C@@H](CCC(N)=O)C(N)=O)(C3)NC(=O)[C@H]([C@@H](C)O)NC(=O)[C@H](Cc3ccccc3)NC(=O)[C@H](C)NC(=O)[C@H](C)NC(=O)[C@H]([C@@H](C)O)NC(=O)[C@H](CC(=O)O)NC1=O)NC(=O)[C@H](CC(C)(C)C)NC(=O)[C@H](CC(=O)O)NC2=O (stereo partly drawn) [I-1168, Ac-PL3-Asp-Npg-B5-Asp-Thr-Ala-Ala-Phe-Thr-PyrS2-2C1F-BztA-Gln-NH2] | 31400 nM | 25 nM | – | 10 µM (≈ 19.2 µg/mL) | –
5 | C[C@@H]1NC(=O)[C@H](C)NC(=O)[C@H](CC(=O)O)NC(=O)[C@H](CC(=O)O)NC(=O)C2(CCCC=CCCCCCC[C@@](C)(C(=O)N[C@@H](Cc3ccccc3Cl)C(=O)N[C@@H](Cc3csc4ccccc34)C(=O)N[C@@H](CCC(N)=O)C(N)=O)NC(=O)[C@H]([C@@H](C)O)NC(=O)[C@H](Cc3ccccc3)NC1=O)CCCC=CC[C@]1(CCCN1S(C)(=O)=O)C(=O)N[C@@H](CC(=O)O)C(=O)N[C@@H](CC(C)(C)C)C(=O)N2 (stereo partly drawn) [I-1260, MeSO2-PL3-Asp-Npg-B5-Asp-Asp-Ala-Ala-Phe-Thr-S8-2C1F-BztA-Gln-NH2] | 24000 nM | 23 nM | – | 50 µM (≈ 96.3 µg/mL) | –
6 | CC(=O)N1CCC[C@]12CC=CCCCC1(CCCC=CCCCOC(=O)N3CC[C@@](C(=O)N[C@@H](Cc4ccsc4)C(=O)N[C@@H](Cc4csc5ccccc45)C(=O)N[C@H](CO)[C@@H](C)O)(C3)NC(=O)[C@H](Cc3ccc(C(F)(F)F)cc3)NC(=O)[C@H](Cc3ccccc3)NC(=O)[C@H](C)NC(=O)[C@H](C)NC(=O)[C@H](CC(=O)O)NC(=O)[C@H](CC(=O)O)NC1=O)NC(=O)[C@H](CC(C)(C)C)NC(=O)[C@H](CC(=O)O)NC2=O (stereo partly drawn) [I-1372, Ac-PL3-Asp-Npg-B5-Asp-Asp-Ala-Ala-Phe-4F3MeF-PyrS2-3Thi-BztA-Thro1] | 10200 nM | 29 nM | – | 10 µM (≈ 19.8 µg/mL) | –

Results, then the compound that gave them:

Row | IC50 [1] | IC50 ([2]; fluorescence polarization) | Solubility (Solubility in PBS; Solubility (uM)) | Solubility (Solubility in PBS) | IC50 [2] | Compound
7 | 9900 nM | 29 nM | – | 10 µM (≈ 20.5 µg/mL) | – | CC(=O)N1CCC[C@]12CC=CCCCC1(CCCC=CCCCOC(=O)N3CC[C@@](C(=O)N[C@@H](Cc4ccccc4Cl)C(=O)N[C@@H](Cc4csc5ccccc45)C(=O)N[C@@H](CCC(N)=O)C(N)=O)(C3)NC(=O)[C@H](Cc3ccc(C(F)(F)F)cc3)NC(=O)[C@H](Cc3ccccc3)NC(=O)[C@H](C)NC(=O)[C@H](C)NC(=O)[C@H](CC(=O)O)NC(=O)[C@H](CC(=O)O)NC1=O)NC(=O)[C@H](CC(C)(C)C)NC(=O)[C@H](CC(=O)O)NC2=O (stereo partly drawn) [I-1369, Ac-PL3-Asp-Npg-B5-Asp-Asp-Ala-Ala-Phe-4F3MeF-PyrS2-2C1F-BztA-Gln-NH2]
8 | 10000 nM | 18 nM | – | 10 µM (≈ 19.8 µg/mL) | – | CC(=O)N1CCC[C@]12CC=CCCCC1(CCCC=CCCCOC(=O)N3CC[C@@](C(=O)N[C@@H](Cc4ccsc4)C(=O)N[C@@H](Cc4csc5ccccc45)C(=O)N[C@H](CO)[C@@H](C)O)(C3)NC(=O)[C@H](Cc3ccccc3C(F)(F)F)NC(=O)[C@H](Cc3ccccc3)NC(=O)[C@H](C)NC(=O)[C@H](C)NC(=O)[C@H](CC(=O)O)NC(=O)[C@H](CC(=O)O)NC1=O)NC(=O)[C@H](CC(C)(C)C)NC(=O)[C@H](CC(=O)O)NC2=O (stereo partly drawn) [I-1370, Ac-PL3-Asp-Npg-B5-Asp-Asp-Ala-Ala-Phe-2F3MeF-PyrS2-3Thi-BztA-Thro1]
9 | 7200 nM | 13 nM | – | 10 µM (≈ 19.5 µg/mL) | – | CC(=O)N1CCC[C@]12CC=CCCCC1(CCCC=CCCCOC(=O)N3CC[C@@](C(=O)N[C@@H](Cc4ccccc4C(N)=O)C(=O)N[C@@H](Cc4csc5ccccc45)C(=O)N[C@@H](CCC(N)=O)C(N)=O)(C3)NC(=O)[C@H](CC(C)C)NC(=O)[C@H](Cc3ccccc3)NC(=O)[C@H](C)NC(=O)[C@H](C)NC(=O)[C@H](CC(=O)O)NC(=O)[C@H](CC(=O)O)NC1=O)NC(=O)[C@H](CC(C)(C)C)NC(=O)[C@H](CC(=O)O)NC2=O (stereo partly drawn) [I-1315, Ac-PL3-Asp-Npg-B5-Asp-Asp-Ala-Ala-Phe-Leu-PyrS2-2cbmF-BztA-Gln-NH2]
10 | 27800 nM | 32 nM | – | 50 µM (≈ 95.9 µg/mL) | – | CC(=O)N1CCC[C@]12CC=CCCCC1(CCCC=CCCCOC(=O)N3CC[C@@](C(=O)N[C@@H](Cc4ccsc4)C(=O)N[C@@H](Cc4csc5ccccc45)C(=O)N[C@@H](CCC(N)=O)C(N)=O)(C3)NC(=O)[C@H](CC(N)=O)NC(=O)[C@H](Cc3ccccc3)NC(=O)[C@H](C)NC(=O)[C@H](C)NC(=O)[C@H](CC(=O)O)NC(=O)[C@H](CC(N)=O)NC1=O)NC(=O)[C@H](CC(C)(C)C)NC(=O)[C@H](CC(=O)O)NC2=O (stereo partly drawn) [I-1206, Ac-PL3-Asp-Npg-B5-Asn-Asp-Ala-Ala-Phe-Asn-PyrS2-3Thi-BztA-Gln-NH2]
11 | > 20000 nM | – | 49 µM (≈ 100 µg/mL) | – | 21 nM | CC(=O)N1CCC[C@]12CC=CCCCC1(CCCC=CCCCOC(=O)N3CC[C@@](C(=O)N[C@@H](Cc4ccccc4Cl)C(=O)N[C@@H](Cc4csc5ccccc45)C(=O)N[C@@H](CCC(N)=O)C(N)=O)(C3)NC(=O)[C@H](CC(N)=O)NC(=O)[C@H](Cc3ccccc3)NC(=O)[C@H](CCCCNC(C)C)NC(=O)[C@H](C)NC(=O)[C@H](CC(=O)O)NC(=O)[C@H](CC(=O)O)NC1=O)NC(=O)[C@H](CC(C)(C)C)NC(=O)[C@H](CC(=O)O)NC2=O (stereo partly drawn) [I-1132, Ac-PL3-Asp-Npg-B5-Asp-Asp-Ala-iPrLys-Phe-Asn-PyrS2-2C1F-BztA-Gln-NH2]
